Data reported in patent publication US20120201908A1, “METHOD OF TREATING BIPOLAR DISORDER OR DEPRESSION USING AN ANTIESTROGEN” (Lunera Equities, LLLP, priority 2009, published 2012).
Read-outs that look alike come from different tables or passages of the source.

Assays:
[1] = test system: symptoms of acute/severe depression; assay: Case report Subject C: antiestrogen in descending daily dosing to treat acute/severe depression; type: in vivo, human
Description: Subject C is a person in good general physical health with no previous history of mental illness or depression. Subject C was prescribed Dapsone as a child in order to treat to treat dermititis herpetiformis. Subject C received no medication in the past four years. In December 2008, Subject C became lethargic, uninterested in usually pleasurable activities, restless, and began oversleeping. After a full month, symptoms of depression became extreme and subject C was thought to be in danger of becoming suicidal.
Subject C's last dose was 2.5 mg on the fifth day.
Suicidal thoughts returned and Subject C considered dropping out of law school. Subject C started a descending dose course of Arimidex®; starting with a single dose of 1 mg on day one. Again, symptoms of depression faded noticeably within 8 hours, in a manner similar to that in response to treatment with tamoxifen. Subject C took single daily doses of Arimidex®; 0.5 mg on day two; 0.25 mg each on days three and four.

[2] = test system: symptoms of bipolar disorder (bipolar I); assay: Pilot study Subject D: tamoxifen citrate added to bipolar medication, mood charts and psychiatrist visits; type: in vivo, human
Description: Subject D is a person with a family history of bipolar disorder. Although Subject D had symptoms spanning Asperger's Syndrome, Bipolar I, Obsessive-Compulsive Disorder, Oppositional Defiant Disorder and anti-social traits, bipolar I was the diagnosis for several reasons, including the fact that it was present on both sides of the family and the symptoms were better suited to a bipolar diagnosis.
First visit: Day 1. Due to Subject D's extreme condition, past hospitalizations and the complicated mixture of medications, the psychiatrist spent approximately one hour with the subject. […] Subject D was also given a copy of the Gary Sach's Mood Chart for the subject and their parent to be filled out daily for the psychiatrist's weekly review.

[3] = test system: symptoms of bipolar disorder (bipolar disorder II); assay: Case report Subject B: antiestrogen to treat symptoms of bipolar disorder; type: in vivo, human
Description: Subject B is a person in good general physical health with a family history of bipolar disorder. Subject B underwent Cholecystectomy. Subject B was diagnosed with Meniere's Syndrome. Subject B was diagnosed with bipolar disorder II, at which time Lamictal was prescribed by a psychiatrist. […] The psychiatrist then prescribed Effexor XR® (venlafaxine hydrochloride) 75 mg/daily. […] A general physician prescribed 1.5 mg/Klonopin® (Clonazepam) daily.
Subject B also remained mentally alert and stable. […] Currently, Subject B remains stable and emotionally level.
Subject B's spouse states that Subject B is much more level, enjoys their life to a new degree, no longer loses control or becomes violent without warning. The entire family feels that life is much easier since Subject B began taking the antiestrogen.

[4] = test system: mania in patients with bipolar disorder; settings: Yildiz et al. 2008; cited from earlier work
[5] = test system: symptoms of bipolar disorder; settings: Subject F; for onset of noticed difference: tamoxifen citrate 20 mg qd
Description: In a preferred aspect, the patient fills out the mood chart on a regular basis and a family member, friend, roommate or clinical or institutional staff member who interacts with the patient on a regular basis, also records a parallel mood chart on a regular basis. […] In another aspect, a mood chart is started at the start of treatment with an antiestrogen.
Subject F is a person who experienced a coronary three years prior to starting the study that their doctors blamed on stimulants used for ADD. Subject F had stents placed following the coronary. […] They maintain a job where they can do much of the work from home. It has been over a year since they were so severe they could not get out of bed or work. They have not had any extreme episodes in the immediate past. Subject F is nearsighted and has high blood pressure.

[6] = test system: symptoms of bipolar disorder (bipolar disorder I); assay: Case report Subject A: antiestrogen to treat symptoms of bipolar disorder; settings: tamoxifen citrate 20 mg base equivalents or Arimidex 1 mg, once every day or every other day
Description: The following list describes the drugs that were tried in combination with Eskalith: • 1. Depakote® (Divalproex Sodium Delayed Release Tablets) 50 mg daily. […] Tegretol XR® (Carbamazepine) 200 mg twice daily. […] Risperdal® (Risperidone) 3 mg per day. […] Prozac® (Olanzapine and Fluoxetine hydrochloride) 20 mg twice daily. […] Klonopin® (Clonazepam): originally from 2002 to 2009 was 8 mg to 10 mg daily for generalized anxiety. […] Lamictal® (Lamotrigine) Titration schedule over five weeks up to 250 mg twice daily.

[7] = test system: symptoms of bipolar disorder; assay: Pilot study Subject E: tamoxifen citrate added to bipolar medication, mood charts and psychiatrist visits; type: in vivo, human
Description: Subject E is a person and an insulin dependent diabetic. Subject E was diagnosed with bipolar disorder at […]. They have had surgery in the past for their knees, their neck and stitches for their head. Subject E has been institutionalized multiple times within the last nine years for their own protection. To date, no medications have seemed to help. Subject also has a history of alcoholism. Some complexity was expected in treatment due to diabetes.

Structure (SMILES): CC/C(=C(\c1ccccc1)c1ccc(OCCN(C)C)cc1)c1ccccc1.O=C(O)CC(O)(CC(=O)O)C(=O)O [Tamoxifen citrate, (Z)2-[4-(1,2-diphenyl-1-butenyl)phenoxy]-N,N-dimethylethanamine 2-hydroxy-1,2,3-propanetricarboxylate (1:1)]
- symptom-free period after the course [1]: three months with no symptoms of depression
- time to lessening of symptoms of depression after the first dose ([1]; single dose on day one: tamoxifen citrate 20 mg or Arimidex 1 mg): within the first eight hours
- symptoms of depression after the descending dose course ([1]; tamoxifen citrate 20/10/5/2.5/2.5 mg days 1-5, Arimidex 1/0.5/0.25/0.25 mg days 1-4): Symptoms of depression were alleviated
- mood and energy as told to the psychiatrist ([2]; Day 9, tamoxifen citrate 20 mg qd): happier than they have been in a long time and has more energy
- onset of feeling more balanced ([2]; tamoxifen citrate 20 mg qd added to Lithium ER, Depakote ER, Risperidone, Geodon): began feeling more balanced after only four days
- reduction of concurrent bipolar medication ([2]; to Day 153, tamoxifen 20-30 mg daily): the doses of Depakote ER, Risperidone and Geodon were each able to be significantly reduced and Lithium was able to be discontinued
- time remained stable since beginning treatment [3]: approximately 18 months
- bipolar symptoms ([3]; tamoxifen citrate 10 mg or 20 mg base equivalents taken regularly as only mood-stabilizing medication): no longer has bipolar symptoms
- mood stability ([3]; tamoxifen citrate 20 mg base equivalents daily for two weeks): increased mood stability and overall feeling of well being
- treatment of mania [4]: effective in treatment of mania in patients with bipolar disorder
- anger ([5]; Day 13, tamoxifen citrate 20 mg qd, Strattera not taken): felt less angry even without taking the Strattera
- subject's report to study coordinator ([5]; Day 52, Lamictal lowered to 100 mg qd): noticing the ability to sense their moods better
- mood after a forgotten dose ([5]; Day 70, dose forgotten the day before): felt more depressed than any day since they started the program
- out of control spending ([5]; Day 77): they have not had this problem since they went on the Tamoxifen
- outbursts ([5]; Day 84): one outburst with their spouse, the first since starting Tamoxifen
- onset of noticed difference ([5]; listed as Tamoxifen): positive difference around four days after starting
- onset of noticed difference ([5]; listed as tamoxifen citrate): noticed a difference within three or four days
- moods, spending, anger (synopsis) ([5]; to Day 98, since starting Tamoxifen Citrate): their moods have been level, their normally “out of control spending” was no longer a problem and their anger and problems with spouse have all but vanished
- reduction of concurrent bipolar medication ([5]; to Day 98, tamoxifen 20 mg daily): Lamictal was able to be discontinued, and Strattera was able to remain discontinued with mood stabilization
- mood swings with the antiestrogen as only bipolar medication [6]: controls mood swings without the concurrent use of other bipolar medication
- mood swings with the antiestrogen as only bipolar medication ([6]; listed as tamoxifen citrate): mood swings became virtually non-existent
- response to treatment ([7]; Day 34, tamoxifen citrate 20 mg qd, other drugs cut in dose, listed as tamoxifen): responded well
- reduction of concurrent bipolar medication ([7]; to Day 148, tamoxifen 20 mg daily): Topamax and Fluoxetine were able to be discontinued, and the dose of Abilify was significantly reduced
